Data as given in publication PMC11945486, “TAS1R2/TAS1R3 Single-Nucleotide Polymorphisms Affect Sweet Taste Receptor Activation by Sweeteners: The SWEET Project” (Nutrients, 2025).
Changes are numbered by the printed parent chain.

Assays:
mTAS1R2-WT/mTAS1R3-WT = target: T1, mTAS1R2-WT/mTAS1R3-WT (Mus musculus, UniProt Q925D8+Q925I4); assay: Calcium mobilisation assay, HEK293T-Gα16gust44 cells, mouse sweet taste receptor WT; type: cell-based; details: mTAS1R2-WT + mTAS1R3-WT; "-": no activation
T1 construct: expressed in transfected cells; host or cells: HEK293T-Gα16gust44
T1 sequence (Q925I4 20-843): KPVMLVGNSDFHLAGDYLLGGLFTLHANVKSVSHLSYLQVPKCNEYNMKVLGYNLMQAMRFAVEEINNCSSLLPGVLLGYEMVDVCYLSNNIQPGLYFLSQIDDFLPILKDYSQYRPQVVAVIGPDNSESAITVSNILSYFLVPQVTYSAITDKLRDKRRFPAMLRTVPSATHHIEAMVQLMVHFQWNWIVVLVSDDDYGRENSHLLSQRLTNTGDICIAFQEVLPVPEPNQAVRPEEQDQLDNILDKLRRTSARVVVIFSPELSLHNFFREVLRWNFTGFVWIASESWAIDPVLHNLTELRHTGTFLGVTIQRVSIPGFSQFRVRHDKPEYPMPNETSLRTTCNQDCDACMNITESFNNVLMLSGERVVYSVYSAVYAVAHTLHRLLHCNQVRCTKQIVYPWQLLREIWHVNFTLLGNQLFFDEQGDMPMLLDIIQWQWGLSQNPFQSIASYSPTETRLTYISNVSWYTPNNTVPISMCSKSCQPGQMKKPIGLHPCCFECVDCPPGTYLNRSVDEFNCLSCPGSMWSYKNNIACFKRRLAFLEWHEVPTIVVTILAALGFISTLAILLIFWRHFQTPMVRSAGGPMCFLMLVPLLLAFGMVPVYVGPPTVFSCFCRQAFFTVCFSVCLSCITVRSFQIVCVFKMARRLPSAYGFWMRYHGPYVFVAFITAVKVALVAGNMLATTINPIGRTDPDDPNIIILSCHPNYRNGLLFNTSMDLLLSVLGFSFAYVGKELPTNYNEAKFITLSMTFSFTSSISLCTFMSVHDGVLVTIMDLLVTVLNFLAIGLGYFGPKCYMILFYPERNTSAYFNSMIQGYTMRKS
T1 sequence (Q925D8 21-858): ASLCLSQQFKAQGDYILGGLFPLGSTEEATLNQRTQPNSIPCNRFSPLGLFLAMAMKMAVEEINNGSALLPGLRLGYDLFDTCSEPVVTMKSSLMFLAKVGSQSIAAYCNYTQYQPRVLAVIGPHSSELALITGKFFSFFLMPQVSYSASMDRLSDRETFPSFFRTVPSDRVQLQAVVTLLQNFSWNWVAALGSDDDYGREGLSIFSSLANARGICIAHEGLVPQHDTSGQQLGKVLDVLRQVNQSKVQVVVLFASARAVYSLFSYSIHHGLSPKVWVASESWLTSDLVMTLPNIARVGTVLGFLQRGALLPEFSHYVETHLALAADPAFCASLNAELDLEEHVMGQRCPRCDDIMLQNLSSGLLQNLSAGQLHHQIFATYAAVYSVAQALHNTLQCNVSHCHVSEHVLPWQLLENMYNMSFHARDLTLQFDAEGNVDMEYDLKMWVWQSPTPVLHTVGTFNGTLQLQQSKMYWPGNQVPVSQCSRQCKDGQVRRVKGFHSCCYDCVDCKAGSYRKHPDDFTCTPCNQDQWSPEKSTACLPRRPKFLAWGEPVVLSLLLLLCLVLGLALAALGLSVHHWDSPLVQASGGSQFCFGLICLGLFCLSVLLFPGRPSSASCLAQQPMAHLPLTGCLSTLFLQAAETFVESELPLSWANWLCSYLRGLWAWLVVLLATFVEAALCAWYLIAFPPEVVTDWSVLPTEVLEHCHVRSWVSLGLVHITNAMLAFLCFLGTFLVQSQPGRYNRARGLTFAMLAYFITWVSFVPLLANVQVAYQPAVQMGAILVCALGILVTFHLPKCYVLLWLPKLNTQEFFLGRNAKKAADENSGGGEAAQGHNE
Procedure: (§1) The HEK293T cells were kindly provided by Jay P. Slack (Givaudan Flavors Corporation; Cincinnati, OH, USA). HEK293T cells stably transfected with Gα16gust44 [43, 67] were seeded in poly-D-lysine-coated clear-bottom black 96-well plates (0.35 × 10^5 cells/well) in high-glucose DMEM supplemented with 2 mM GlutaMAX, 10% dialysed foetal bovine serum with penicillin/streptomycin and G418 (400 μg/mL) at 37 °C and 6.3% CO2 in a humidified atmosphere as previously reported. […] As a negative control, HEK293T cells were mock-transfected with the empty expression vector. After a further 24 h of incubation, the HEK293T cells were washed with C1 buffer (130 mM NaCl, 5 mM KCl, 10 mM HEPES pH 7.4 and 2 mM CaCl2). The 96-well plates containing the cells were then stimulated with sweet-tasting compounds. […] Different concentration ranges were tested depending on the sweet compound injected. The Ca^2+ changes were expressed as fractional changes in fluorescent light intensity: ΔF/F = (F − F0)/F0, where F was the fluorescent light intensity at each point, and F0 was the value of emitted fluorescent light prior to stimulus application. To calculate dose–response relationships, the changes in fluorescence upon stimulus application were averaged, mock-subtracted and baseline-corrected. The dose–response data obtained were adjusted using a 4-parameter logistic equation. The half-maximal effective concentrations (EC50 values) and maximal signal amplitudes were calculated using SigmaPlot software (version 15.0) (Systat Software; San Jose, CA, USA).
(§2) HEK293T-Gα16gust44 cells were transiently cotransfected with pcDNA6-MAX-mTAS1R2-FLAG, pcDNA4-MAX-mTAS1R3-WT-FLAG or pcDNA4-MAX-mTAS1R3-I60T-FLAG, and pCMV-GCaMP5G as previously described in detail. After 24 h, the cells were washed with C1 buffer and stimulated with a logarithmically increasing range of sweetener concentrations. Calcium responses during automated application were monitored using a FlexStation®3 Multi-Mode microplate reader. The dose–response curves, EC50 values and maximal signal amplitudes were calculated as previously described.
(§3) For in vitro calcium mobilisation assay performed on hTAS1R2-SNPs, hTAS1R3-SNPs and mTAS1R3-I60T, 6 to 7 concentrations were tested for each sweet compound, plus buffer alone. All concentration–receptor combinations were measured in duplicate, and each experiment was repeated at least 4 times (8 wells/concentration). Results were expressed for each concentration as ΔF/F mean ± SEM and represented as dose–response curves.

mTAS1R2-WT/mTAS1R3-I60T = target: T2, mTAS1R2-WT/mTAS1R3-I60T (Mus musculus, UniProt Q925D8+Q925I4, I60T); assay: Calcium mobilisation assay, HEK293T-Gα16gust44 cells, mouse TAS1R3-I60T variant; type: cell-based; details: mTAS1R2-WT + mTAS1R3-I60T; "-": no activation
T2 construct: expressed in transfected cells; host or cells: HEK293T-Gα16gust44
T2 sequence (Q925I4 20-843): T1 sequence (Q925I4 20-843)
T2 sequence (Q925D8 21-858 I60T): T1 sequence (Q925D8 21-858) with I40T
Procedure: as §1, §2, §3

`O=C1NS(=O)(=O)c2ccccc21` [Saccharin, saccharin] showed an EC50 (mTAS1R2-WT/mTAS1R3-WT) of 1520 ± 17 µM and an EC50 (mTAS1R2-WT/mTAS1R3-I60T) of 2540 ± 61 µM.
